# Data from ChEMBL document CHEMBL1121629, “1-(Aminoalkyl)-6-aryl-4-H-s-triazolo[4,3-a][1,4]benzodiazepines with antianxiety and antidepressant activity” (1980).
# How the values were obtained:
# Assay type in all cases: functional
# Mus musculus [1] = species on record: Mus musculus; assay: Tested for antagonism of nicotine-induced death (D) in mice
# Mus musculus [2] = species on record: Mus musculus; assay: Tested for antagonism of bicuculline-induced tonic-extensor convulsions (B) in mice
# Mus musculus [3] = species on record: Mus musculus; assay: Tested for antagonism of oxotremorine hypothermia (OX) in mice
# Mus musculus [4] = species on record: Mus musculus; assay: Tested for stereotyped gnawing and licking behavior of mice pretreated with apomorphine (AG)
# Mus musculus [5] = species on record: Mus musculus; assay: Tested for antagonism of nicotine-induced tonic extensor convulsions (TE) in mice
# Mus musculus [6] = species on record: Mus musculus; assay: Tested for potentiation of gamma-butyrolactone induced sleep (gamma-B) in mice
# Mus musculus [7] = species on record: Mus musculus; assay: Tested for antagonism of pentylenetetrazole-induced clonic convulsions (P) in mice
# Mus musculus [8] = species on record: Mus musculus; assay: Prolongation of hypoxic survival time (HS) in mice
# Mus musculus [9] = species on record: Mus musculus; assay: Tested for potentiation of yohimbine toxicity in aggregated mice(Y)
SMILES,ED50 (Mus musculus [1]),ED50 (Mus musculus [2]),ED50 (Mus musculus [3]),ED50 (Mus musculus [4]),ED50 (Mus musculus [5]),ED50 (Mus musculus [6]),ED50 (Mus musculus [7]),ED50 (Mus musculus [8]),ED50 (Mus musculus [9])
CN1CCN(Cc2nnc3n2-c2ccc(Cl)cc2C(c2ccccc2)=NC3)CC1,5 mg/kg,100 mg/kg,> 100 mg/kg,> 100 mg/kg,4.5 mg/kg,20 mg/kg,100 mg/kg,50 mg/kg,> 100 mg/kg
C#CCN(C)Cc1nnc2n1-c1ccc(Cl)cc1C(c1ccccc1)=NC2,0.14 mg/kg,0.5 mg/kg,30 mg/kg,4.4 mg/kg,0.14 mg/kg,0.3 mg/kg,0.3 mg/kg,> 50 mg/kg,18 mg/kg
Clc1ccc2c(c1)C(c1ccccc1)=NCc1nnc(CNCC3CC3)n1-2,0.2 mg/kg,1.9 mg/kg,> 50 mg/kg,> 50 mg/kg,0.2 mg/kg,1.3 mg/kg,3.1 mg/kg,1 mg/kg,50 mg/kg
CCN(CC)OCc1nnc2n1-c1ccc(Cl)cc1C(c1ccccc1)=NC2,0.5 mg/kg,1.1 mg/kg,5.3 mg/kg,> 50 mg/kg,0.56 mg/kg,0.2 mg/kg,1.1 mg/kg,6.3 mg/kg,> 50 mg/kg
CC(N)c1nnc2n1-c1ccc(Cl)cc1C(c1ccccc1)=NC2 (configuration not stated),0.35 mg/kg,0.6 mg/kg,> 50 mg/kg,> 50 mg/kg,0.3 mg/kg,0.12 mg/kg,0.6 mg/kg,3 mg/kg,> 50 mg/kg
CN(C)CCc1nnc2n1-c1ccc(Cl)cc1C(c1ccccc1)=NC2,2.5 mg/kg,21 mg/kg,6 mg/kg,28 mg/kg,2.8 mg/kg,15 mg/kg,25 mg/kg,> 20 mg/kg,30 mg/kg
CNCc1nnc2n1-c1ccc(Cl)cc1C(c1ccccc1)=NC2,0.18 mg/kg,0.5 mg/kg,3.7 mg/kg,12.5 mg/kg,0.16 mg/kg,0.1 mg/kg,0.4 mg/kg,40 mg/kg,> 50 mg/kg
CC(N)c1nnc2n1-c1ccc(Cl)cc1C(c1ccccc1Cl)=NC2 (configuration not stated),0.025 mg/kg,0.2 mg/kg,> 50 mg/kg,> 50 mg/kg,0.023 mg/kg,0.2 mg/kg,2.2 mg/kg,0.02 mg/kg,> 50 mg/kg
